From ChEMBL document CHEMBL1909046, “DrugMatrix in vitro pharmacology data”

Assays:
[1] = DRUGMATRIX: Sodium/nucleoside co-transporter radioligand binding (ligand: nitrobenzylthioinosine); assay type: cell membranes, Cavia porcellus, Dunkin-Hartley, Cerebral cortex, Membrane; details: Not Active = under 50% inhibition at 10 µM
[2] = DRUGMATRIX: Atrial Natriuretic Factor (ANF) radioligand binding (ligand: [125I] ANF (rat)); assay type: cell membranes, Cavia porcellus, Dunkin-Hartley, Adrenal gland, Membrane; details: Not Active = under 50% inhibition at 10 µM
Adenosine receptor A1 = biological target: T1, Adenosine receptor A1 (Homo sapiens, UniProt P30542); assay type: cell membranes, CHO, Membrane; details: cho;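 note: radioligand binding assay at the adenosine A1 receptor, with DPCPX serving as the labelled ligand; in other assays of this panel Not Active means under 50% inhibition at 10 µM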
T1 sequence (P30542 whole entry): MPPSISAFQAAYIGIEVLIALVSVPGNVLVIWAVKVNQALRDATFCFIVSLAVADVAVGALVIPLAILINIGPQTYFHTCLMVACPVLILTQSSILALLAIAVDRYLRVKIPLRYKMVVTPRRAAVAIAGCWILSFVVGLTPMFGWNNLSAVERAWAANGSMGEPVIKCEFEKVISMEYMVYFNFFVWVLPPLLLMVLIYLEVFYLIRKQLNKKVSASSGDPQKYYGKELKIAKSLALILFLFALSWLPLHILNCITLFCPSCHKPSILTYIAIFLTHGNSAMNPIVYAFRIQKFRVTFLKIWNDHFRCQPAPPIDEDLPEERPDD

Neutrophil elastase = biological target: T2, Neutrophil elastase (Homo sapiens, UniProt P08246); assay type: tissue-based;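 note: inhibition of neutrophil elastase enzyme activity, measured with a p-nitroanilide-linked peptide substrate; in other assays of this panel Not Active means under 50% inhibition at 10 µM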
T2 sequence (P08246 whole entry): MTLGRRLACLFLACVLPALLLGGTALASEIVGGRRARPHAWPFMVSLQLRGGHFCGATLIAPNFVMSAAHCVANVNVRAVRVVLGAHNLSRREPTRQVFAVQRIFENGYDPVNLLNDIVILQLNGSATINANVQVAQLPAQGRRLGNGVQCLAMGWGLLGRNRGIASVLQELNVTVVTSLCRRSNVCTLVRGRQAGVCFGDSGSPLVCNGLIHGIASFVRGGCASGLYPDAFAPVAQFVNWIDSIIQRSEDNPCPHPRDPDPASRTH

Mu-type opioid receptor = Mu-type opioid receptor (Homo sapiens, UniProt P35372); assay: DRUGMATRIX: Opiate mu (OP3, MOP) radioligand binding (ligand: [3H] Diprenorphine); assay type: cell membranes, CHO-K1, Membrane; details: cho-k1; Not Active = under 50% inhibition at 10 µM
Mu-type opioid receptor, sequence (P35372 whole entry): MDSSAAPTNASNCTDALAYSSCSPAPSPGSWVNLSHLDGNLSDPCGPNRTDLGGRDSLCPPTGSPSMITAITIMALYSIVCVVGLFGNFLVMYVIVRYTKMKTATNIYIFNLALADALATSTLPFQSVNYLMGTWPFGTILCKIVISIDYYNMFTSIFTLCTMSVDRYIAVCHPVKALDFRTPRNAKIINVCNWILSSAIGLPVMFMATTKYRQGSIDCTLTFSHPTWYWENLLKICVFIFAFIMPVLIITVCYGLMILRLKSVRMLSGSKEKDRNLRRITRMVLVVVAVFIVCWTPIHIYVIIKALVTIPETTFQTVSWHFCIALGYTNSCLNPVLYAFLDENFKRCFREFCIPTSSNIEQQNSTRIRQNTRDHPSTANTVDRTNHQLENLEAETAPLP

C[C@]12CC[C@H]3[C@@H](CCC4=CC(=O)CC[C@@]43C)[C@@H]1CC[C@@H]2O [TESTOSTERONE]
Not Active: IC50 [1] | Ki [1] | IC50 [2] | Ki [2] | IC50 (Adenosine receptor A1) | IC50 (Neutrophil elastase) | IC50 (Mu-type opioid receptor)

COc1ccc(/C=C/C(=O)Nc2ccccc2C(=O)O)cc1OC
Not Active: IC50 [1] | Ki [1] | IC50 [2] | Ki [2] | IC50 (Adenosine receptor A1) | IC50 (Neutrophil elastase) | IC50 (Mu-type opioid receptor)
